Experimental data as given in PubChem BioAssay (NCI).
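1) Cells in 96-well plates. 2) Compound, 48 h, 5 concentrations. 3) Linear interpolation between surrounding doses. 4) Unreached endpoint = highest concentration. GI50: concentration for 50% inhibition of growth. TGI: total growth inhibition.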

Columns and labels:
Assay in all cases: NCI tumour cell line growth inhibition, 48 h
EKVX NSCLC = system: EKVX NSCLC
K-562 leukemia = system: K-562 leukemia
IGROV1 ovarian = system: IGROV1 ovarian
SF-539 CNS = system: SF-539 CNS
HT29 colon = system: HT29 colon
OVCAR-5 ovarian = system: OVCAR-5 ovarian
DU-145 prostate = system: DU-145 prostate
ACHN renal = system: ACHN renal
PC-3 prostate = system: PC-3 prostate
MOLT-4 leukemia = system: MOLT-4 leukemia
UACC-257 melanoma = system: UACC-257 melanoma
NCI/ADR-RES ovarian = system: NCI/ADR-RES ovarian
SF-268 CNS = system: SF-268 CNS
HOP-92 NSCLC = system: HOP-92 NSCLC
NCI-H226 lung = system: NCI-H226 lung
SNB-75 CNS = system: SNB-75 CNS
SNB-19 CNS = system: SNB-19 CNS
BT-549 breast = system: BT-549 breast
NCI-H23 lung = system: NCI-H23 lung
CCRF-CEM leukemia = system: CCRF-CEM leukemia
SW-620 colon = system: SW-620 colon
RPMI-8226 leukemia = system: RPMI-8226 leukemia
A498 renal = system: A498 renal
SK-MEL-28 melanoma = system: SK-MEL-28 melanoma
KM12 colon = system: KM12 colon
HS 578T breast = system: HS 578T breast
T-47D breast = system: T-47D breast
TK-10 renal = system: TK-10 renal
MDA-MB-231 breast = system: MDA-MB-231 breast
UO-31 renal = system: UO-31 renal
SN12C renal = system: SN12C renal
SF-295 CNS = system: SF-295 CNS
786-0 renal = system: 786-0 renal
OVCAR-4 ovarian = system: OVCAR-4 ovarian
SR leukemia = system: SR leukemia
SK-MEL-2 melanoma = system: SK-MEL-2 melanoma
A549 NSCLC = system: A549 NSCLC
RXF 393 renal = system: RXF 393 renal
HOP-62 NSCLC = system: HOP-62 NSCLC
HL-60(TB) leukemia = system: HL-60(TB) leukemia
SK-MEL-5 melanoma = system: SK-MEL-5 melanoma
UACC-62 melanoma = system: UACC-62 melanoma
SK-OV-3 ovarian = system: SK-OV-3 ovarian
MALME-3M melanoma = system: MALME-3M melanoma
MDA-MB-435 = system: MDA-MB-435
NCI-H522 lung = system: NCI-H522 lung
CAKI-1 renal = system: CAKI-1 renal

CCCCCc1ccc(S(=O)(=O)Nc2cccc(-c3csc(NC(=O)CCCCCN4CCN(C)CC4)n3)c2)cc1
GI50 (EKVX NSCLC): 2.07 µM | TGI (EKVX NSCLC): 5.29 µM | GI50 (K-562 leukemia): 2.42 µM | TGI (K-562 leukemia): 17.5 µM | GI50 (IGROV1 ovarian): 2.27 µM | TGI (IGROV1 ovarian): 5.29 µM | GI50 (SF-539 CNS): 1.67 µM | TGI (SF-539 CNS): 3.09 µM | GI50 (HT29 colon): 1.86 µM | TGI (HT29 colon): 3.67 µM | GI50 (OVCAR-5 ovarian): 2.16 µM | TGI (OVCAR-5 ovarian): 5.13 µM | GI50 (DU-145 prostate): 2.11 µM | TGI (DU-145 prostate): 4.32 µM | GI50 (ACHN renal): 1.86 µM | TGI (ACHN renal): 3.56 µM | GI50 (PC-3 prostate): 2.2 µM | TGI (PC-3 prostate): 6.42 µM | GI50 (MOLT-4 leukemia): 2.98 µM | TGI (MOLT-4 leukemia): 9.5 µM | GI50 (UACC-257 melanoma): 1.64 µM | TGI (UACC-257 melanoma): 3.23 µM | GI50 (NCI/ADR-RES ovarian): 8.99 µM | TGI (NCI/ADR-RES ovarian): 39.4 µM | GI50 (SF-268 CNS): 1.86 µM | TGI (SF-268 CNS): 3.93 µM | GI50 (HOP-92 NSCLC): 1.44 µM | TGI (HOP-92 NSCLC): 3.3 µM | GI50 (NCI-H226 lung): 2.55 µM | TGI (NCI-H226 lung): 7.16 µM | GI50 (SNB-75 CNS): 1.6 µM | TGI (SNB-75 CNS): 3.88 µM | GI50 (SNB-19 CNS): 2.9 µM | TGI (SNB-19 CNS): 9.8 µM | GI50 (BT-549 breast): 2.29 µM | TGI (BT-549 breast): 9.55 µM | GI50 (NCI-H23 lung): 2.46 µM | TGI (NCI-H23 lung): 6.52 µM | GI50 (CCRF-CEM leukemia): 2.76 µM | TGI (CCRF-CEM leukemia): 13.7 µM | GI50 (SW-620 colon): 1.73 µM | TGI (SW-620 colon): 3.23 µM | GI50 (RPMI-8226 leukemia): 1.83 µM | TGI (RPMI-8226 leukemia): 4.38 µM | GI50 (A498 renal): 3.36 µM | TGI (A498 renal): 11.9 µM | GI50 (SK-MEL-28 melanoma): 1.84 µM | TGI (SK-MEL-28 melanoma): 3.37 µM | GI50 (KM12 colon): 1.86 µM | TGI (KM12 colon): 3.49 µM | GI50 (HS 578T breast): 1.92 µM | TGI (HS 578T breast): 4.7 µM | GI50 (T-47D breast): 1.96 µM | TGI (T-47D breast): 4.93 µM | GI50 (TK-10 renal): 2.03 µM | TGI (TK-10 renal): 4.51 µM | GI50 (MDA-MB-231 breast): 1.85 µM | TGI (MDA-MB-231 breast): 3.89 µM | GI50 (UO-31 renal): 1.62 µM | TGI (UO-31 renal): 3.23 µM | GI50 (SN12C renal): 2.74 µM | TGI (SN12C renal): 8.65 µM | GI50 (SF-295 CNS): 1.93 µM | TGI (SF-295 CNS): 3.95 µM | GI50 (786-0 renal): 1.86 µM | TGI (786-0 renal): 3.38 µM | GI50 (OVCAR-4 ovarian): 2.74 µM | TGI (OVCAR-4 ovarian): 8.69 µM | GI50 (SR leukemia): 1.96 µM | TGI (SR leukemia): 4.79 µM | GI50 (SK-MEL-2 melanoma): 1.76 µM | TGI (SK-MEL-2 melanoma): 3.47 µM | GI50 (A549 NSCLC): 1.94 µM | TGI (A549 NSCLC): 4.38 µM | GI50 (RXF 393 renal): 1.64 µM | TGI (RXF 393 renal): 3.35 µM

COc1cc(/C=N/n2cnc3oc(-c4ccccc4)cc3c2=N)cc(CN2CCCC2)c1O
GI50 (EKVX NSCLC): 1.83 µM | TGI (EKVX NSCLC): 3.77 µM | GI50 (HOP-62 NSCLC): 2.02 µM | TGI (HOP-62 NSCLC): 5.04 µM | GI50 (HL-60(TB) leukemia): 3.51 µM | TGI (HL-60(TB) leukemia): 14.2 µM | GI50 (SF-539 CNS): 1.75 µM | TGI (SF-539 CNS): 3.46 µM | GI50 (OVCAR-5 ovarian): 1.67 µM | TGI (OVCAR-5 ovarian): 3.21 µM | GI50 (DU-145 prostate): 1.83 µM | TGI (DU-145 prostate): 3.35 µM | GI50 (ACHN renal): 1.61 µM | TGI (ACHN renal): 3.18 µM | GI50 (PC-3 prostate): 1.5 µM | TGI (PC-3 prostate): 3.13 µM | GI50 (MOLT-4 leukemia): 2.18 µM | TGI (MOLT-4 leukemia): 6.49 µM | GI50 (UACC-257 melanoma): 20.5 µM | TGI (UACC-257 melanoma): 43.8 µM | GI50 (NCI/ADR-RES ovarian): 1.96 µM | TGI (NCI/ADR-RES ovarian): 4.04 µM | GI50 (HOP-92 NSCLC): 1.92 µM | TGI (HOP-92 NSCLC): 13 µM | GI50 (NCI-H226 lung): 5.84 µM | TGI (NCI-H226 lung): 34.1 µM | GI50 (SK-MEL-5 melanoma): 3.49 µM | TGI (SK-MEL-5 melanoma): 15.9 µM | GI50 (SNB-75 CNS): 0.856 µM | TGI (SNB-75 CNS): 2.26 µM | GI50 (BT-549 breast): 23.6 µM | TGI (BT-549 breast): 58.4 µM | GI50 (CCRF-CEM leukemia): 1.96 µM | TGI (CCRF-CEM leukemia): 5.75 µM | GI50 (RPMI-8226 leukemia): 2.08 µM | TGI (RPMI-8226 leukemia): 4.82 µM | GI50 (UACC-62 melanoma): 19.6 µM | TGI (UACC-62 melanoma): 40.8 µM | GI50 (A498 renal): 12.9 µM | TGI (A498 renal): 40.2 µM | GI50 (SK-MEL-28 melanoma): 1.82 µM | TGI (SK-MEL-28 melanoma): 3.56 µM | GI50 (HS 578T breast): 13.5 µM | TGI (HS 578T breast): 34 µM | GI50 (T-47D breast): 1.96 µM | TGI (T-47D breast): 4.69 µM | GI50 (TK-10 renal): 26.4 µM | TGI (TK-10 renal): 49.2 µM | GI50 (SK-OV-3 ovarian): 18 µM | TGI (SK-OV-3 ovarian): 38.5 µM | GI50 (MDA-MB-231 breast): 1.49 µM | TGI (MDA-MB-231 breast): 2.9 µM | GI50 (UO-31 renal): 1.42 µM | TGI (UO-31 renal): 3.08 µM | GI50 (SN12C renal): 1.58 µM | TGI (SN12C renal): 3.25 µM | GI50 (MALME-3M melanoma): 1.9 µM | TGI (MALME-3M melanoma): 3.96 µM | GI50 (SF-295 CNS): 1.89 µM | TGI (SF-295 CNS): 3.9 µM | GI50 (MDA-MB-435): 1.69 µM | TGI (MDA-MB-435): 3.19 µM | GI50 (NCI-H522 lung): 2.22 µM | TGI (NCI-H522 lung): 5.79 µM | GI50 (CAKI-1 renal): 1.4 µM | TGI (CAKI-1 renal): 2.88 µM | GI50 (SK-MEL-2 melanoma): 21.2 µM | TGI (SK-MEL-2 melanoma): 47.3 µM | GI50 (RXF 393 renal): 1.35 µM | TGI (RXF 393 renal): 3.43 µM
